Patent US5236927A, “Anti-cancer quinazoline derivatives” (National Research Development Corporation, priority 1985, dated 1993)
“And” between values parts separate entries of the source, which are not always exact repeats. Identical values can stand only once. Like-named read-outs stand apart in the source and are kept apart here.

How the values were obtained:
alanine transaminase [1] = details: rat, in vivo
Protocol: (§2) During and after the infusion blood and bile samples were collected. Four hours after the experiment the rats were sacrificed and the urine collected from the bladder and the liver and kidneys removed.
(§3) Samples of plasma were also analysed for alanine transaminase.

[2] = Urinary and faecal elimination in the mouse; format: in vivo; details: 100 mg/kg i.p.; for dose excreted at 48 h: ip, 0-48 h
L1210/C15 cells = experiment: L1210/C15 cell culture growth inhibition (overproduces TS 45-fold); format: cell-based; details: 48 hours; at 100 uM
Protocol: Cell counts after 48 hours of incubation were obtained by Coulter counting.

L1210 cells = experiment: Reversal of L1210 toxicity by co-incubation with thymidine; format: cell-based
Protocol: Cells in the log phase of growth were diluted to about 5×10^4 /ml and duplicate 5ml aliquots were added to 50 ml tissue culture flasks containing the appropriate additions (diluted in RPMI and sterilised by Millipore filtration). Cell counts after 48 hours of incubation were obtained by Coulter counting.

[3] = Toxicity and weight loss in treated L1210 tumour-bearing mice; format: in vivo, mouse
Protocol: (§1) The L1210 tumour is carried routinely in DBA2 mice at the Institute of Cancer Research (L1210/CBRI). For experiments 5×10^4 cells were implanted i.p. into male C57Bl×DBA2 F1 hybrid mice 3 days prior to treatment. […] The control group consisted of 9 mice and treated groups 6 or 7 mice.

L1210 tumour = experiment: Treatment of L1210 tumour-bearing mice; format: in vivo, mouse
Protocol: as §1

alanine transaminase [4] = experiment: Comparative hepatotoxicity in the mouse (plasma alanine transaminase); format: in vivo
Protocol: […]. Plasma was prepared and the livers and kidneys excised and weighed.
Samples of plasma were also analysed for the enzyme alanine transaminase, an indicator of hepatotoxicity. […]

alanine transaminase [5] = experiment: Hepatotoxicity in rats (plasma alanine transaminase); details: 100 mg/kg 1 h i.v. infusion
Protocol: as §2, §3

[6] = Comparative pharmacokinetics in the mouse (plasma, liver, kidney levels); format: in vivo; details: for concentration at 3 h / concentration at 6 h: plasma, ip, read-out: Plasma quinazoline conc.
Protocol: 3 Hours and 6 hours after administration groups of three mice at each dose level were sacrificed by exsanguination via cardiac puncture. Plasma was prepared and the livers and kidneys excised and weighed.

[7] = tested on: de novo thymidylate synthesis in L1210 cells; experiment: Incorporation of 3H dUrd into acid-precipitable material in L1210 cells; format: cell-based; details: Mus musculus, L1210, 10 min; 10 uM, by about 10 minutes
Protocol: L1210 cells were used at a concentration of 10^5 /ml. Incubation at 37° C. was in complete RPMI tissue culture medium plus or minus drugs for the lengths of time indicated on the graphs. After this time ^3 H dUrd was added at a concentration of 2 uCi/ml (about 0.2 uM). Three 1 ml aliquots were removed after 20 minutes, placed on ice and mixed with 1 ml of ice-cold phosphate buffered saline (PBS). Precipitation onto glass-fibre discs was performed by trichloroacetic acid washing followed by PBS. […] This is an indirect measurement of de novo thymidylate synthesis in whole cells. […] These concentrations are 10 times the ID50 values.

Pharmacokinetics in rats = details: 100 mg/kg 1 h i.v. infusion; for concentration: read-out: Plasma levels
Protocol: as §2, §3

[8] = compound 5 uM + 10 uM thymidine
[9] = 100 mg/kg i.p., 3 h post-treatment
[10] = 100 mg/kg i.p., 6 h post-treatment
[11] = 300 mg/kg i.p., 3 h post-treatment
[12] = 300 mg/kg i.p., 6 h post-treatment
[13] = 500 mg/kg i.p., 3 h post-treatment
[14] = 500 mg/kg i.p., 6 h post-treatment

In the case of C#CCN(Cc1ccc2nc[nH]c(=O)c2c1)c1ccc(C(=O)N[C@@H](CCC(=O)O)C(=O)O)cc1 [CB3804, N-(4-(N-((3,4-dihydro-4-oxo-6-quinazolinyl)methyl)prop-2-ynylamino)benzoyl)-L-glutamic acid], the hepatotoxicity (alanine transaminase [1]) is reported as “not hepatotoxic”, the “bioavailability following i.p. administration” value [2] is reported as “satisfactory bioavailability” and the “components in faeces which may represent metabolites” value [2] is reported as “two components were observed in faeces”. The dose excreted at 48 h ([2]; faeces, read-out: Faecal excretion of the parent compound) was 15 ± 13%, the dose excreted at 48 h ([2]; urine, read-out: Urinary excretion of the parent compound) was 4 ± 1% and the “L1210/C15 ID50” value (L1210/C15 cells) was “no inhibition”. For the same molecule, the “Cell count at 48 hours as % control” value (L1210 cells; [8]) was 98 % control, the “Reversal of L1210 toxicity by thymidine” value (L1210 cells; [8]) was “reversal was complete” and the “Cell count at 48 hours as % control” value (L1210 cells; compound 50 uM + 10 uM thymidine) was 75 % control. The signs of toxicity ([3]; 200 mg/kg i.p. daily ×5) was “no obvious signs of toxicity”, the weight loss ([3]; 200 mg/kg i.p. daily ×5) was “no weight loss occurred” and the signs of toxicity ([3]; dose levels up to 200 mg/kg) was “No signs of toxicity were apparent”. The anti-tumour effectiveness (L1210 tumour; 25 mg/kg i.p. daily ×5, versus other treatments) was “much less effective”, the “"cures" (survived >100 days)” value (L1210 tumour; 50 mg/kg i.p. daily ×5) was “about 65%” and the “"cures" (survived >100 days)” value (L1210 tumour; 100 mg/kg i.p. daily ×5) was “about 80%”. For the same molecule, the “anti-tumour activity compared with CB3717” value (L1210 tumour; in vivo) was “comparable anti-tumour activity”, the “Plasma alanine transaminase level” value (alanine transaminase [4]; [9]) was 19 ± 3 U/L and the “Plasma alanine transaminase level” value (alanine transaminase [4]; [10]) was 10 ± 6 U/L. The “Plasma alanine transaminase level” value (alanine transaminase [4]; [11]) was 10 ± 4 U/L, the “Plasma alanine transaminase level” value (alanine transaminase [4]; [12]) was 8 ± 3 U/L and the “Plasma alanine transaminase level” value (alanine transaminase [4]; [13]) was 16 ± 3 U/L. For the same molecule, the “Plasma alanine transaminase level” value (alanine transaminase [4]; [14]) was 16 ± 2 U/L, the “Levels of alanine transaminase (in words)” value (alanine transaminase [4]; mice i.p., normal range 5-25U/l) was “within the normal range” and the hepatotoxicity (alanine transaminase [4]; mice, at the doses studied) was “not hepatotoxic”. For the same molecule, the “plasma levels of alanine transaminase (in words)” value (alanine transaminase [5]; rats) was “did not”, the “Peak plasma alanine transaminase” value (alanine transaminase [5]; individual rats) was 57 % pre treatment and 143 % pre treatment and the Kidney quinazoline level [6, 9] was less than 0.1 % dose administered. It also gave a Liver quinazoline level [6, 9] of less than 0.1 % dose administered, a Kidney quinazoline level [6, 10] of less than 0.1 % dose administered and a Liver quinazoline level [6, 10] of less than 0.1 % dose administered. For the same molecule, the Kidney quinazoline level [6, 11] was less than 0.03 % dose administered, the Liver quinazoline level [6, 11] was less than 0.03 % dose administered and the Kidney quinazoline level [6, 12] was less than 0.03 % dose administered. The Liver quinazoline level [6, 12] was less than 0.03 % dose administered, the Kidney quinazoline level [6, 13] was less than 0.1 % dose administered and the Liver quinazoline level [6, 13] was less than 0.2 % dose administered. The Kidney quinazoline level [6, 14] was less than 0.1 % dose administered, the Liver quinazoline level [6, 14] was less than 0.2 % dose administered and the “detection in plasma, liver and kidneys” value ([6]; mice, 3 and 6 hours after i.p. dose, for CB3804 except plasma 3 h at 500 mg/kg) was “below the limit of detection”. For the same molecule, the “accumulation in the kidneys” value ([6]; mouse, in vivo) was “does not apparently accumulate in the kidneys”, the concentration at 3 h ([6]; mouse, 100 mg/kg i.p., 3 h post-treatment) was less than 5 µM and the concentration at 6 h ([6]; mouse, 100 mg/kg i.p., 6 h post-treatment) was less than 5 µM. The concentration at 3 h ([6]; mouse, 300 mg/kg i.p., 3 h post-treatment) was less than 5 µM, the concentration at 6 h ([6]; mouse, 300 mg/kg i.p., 6 h post-treatment) was less than 5 µM and the concentration at 3 h ([6]; mouse, 500 mg/kg i.p., 3 h post-treatment) was 5 µM. For the same molecule, the concentration at 6 h ([6]; mouse, 500 mg/kg i.p., 6 h post-treatment) was less than 5 µM, the activity at 10 µM [7] was less than 20% and the “detection in liver or kidneys at the end of the experiment” value (Pharmacokinetics in rats; rats) was “no CB3804 could be detected”. It also gave a Kidney level (Pharmacokinetics in rats; individual rats) of less than 0.5 % dose, a Liver level (Pharmacokinetics in rats; individual rats) of less than 0.5 % dose and a Cumulative biliary excretion (Pharmacokinetics in rats; individual rats, 100 mg/kg) of 80 % dose. The Cumulative urinary excretion (Pharmacokinetics in rats; individual rats, 100 mg/kg) was 7 % dose, the dose excreted (Pharmacokinetics in rats; rat, bile, iv, 100 mg/kg, Cumulative biliary excretion, individual rats) was 72% and the concentration at 1 h (Pharmacokinetics in rats; rat, plasma, iv, 100 mg/kg, Plasma levels, end inf, individual rats) was 274 µM. The concentration at 2 h (Pharmacokinetics in rats; rat, plasma, iv, 100 mg/kg, Plasma levels, inf + 1 h, individual rats) was 10 µM, the concentration at 3 h (Pharmacokinetics in rats; rat, plasma, iv, 100 mg/kg, Plasma levels, inf + 2 h, individual rats) was less than 2 µM and the concentration at 4 h (Pharmacokinetics in rats; rat, plasma, iv, 100 mg/kg, Plasma levels, inf + 3 h, individual rats) was less than 2 µM. It also gave a concentration at 5 h (Pharmacokinetics in rats; rat, plasma, iv, 100 mg/kg, Plasma levels, inf + 4 h, individual rats) of less than 2 µM, a concentration at 0.5 h (Pharmacokinetics in rats; rat, plasma, iv, 100 mg/kg, Plasma levels, mid inf, individual rats) of 275 µM and a dose excreted (Pharmacokinetics in rats; rat, urine, iv, 100 mg/kg, Cumulative urinary excretion, individual rats) of 11%. For the same molecule, the concentration (Pharmacokinetics in rats; end inf, individual rats, 100 mg/kg, 60 min) was 256 µM, the concentration (Pharmacokinetics in rats; inf + 1 h, individual rats, 120 min, 100 mg/kg, 120 min) was 19 µM and the concentration (Pharmacokinetics in rats; inf + 2 h, individual rats, 180 min) was less than 2 µM. For the same molecule, the concentration (Pharmacokinetics in rats; inf + 3 h, individual rats, 240 min) was less than 2 µM, the concentration (Pharmacokinetics in rats; inf + 4 h, individual rats, 300 min) was less than 2 µM and the concentration (Pharmacokinetics in rats; mid inf, individual rats, 30 min, 100 mg/kg, 30 min) was 258 µM.
